# According to patent publication US9737075B2, “Synergistic benzoxaborole-containing anti-fungicidal composition” (The Penn State Research Foundation, priority 2015, dated 2017):
# Read-outs that look alike come from different tables or passages of the source.
# What was measured:
# Assay type in all cases: cell-based
# Fusarium graminearum = test: microbe, parasite or virus in culture; conditions: Fusarium graminearum, 72 h, read-out: Independent MIC
# Sclerotinia homoeocarpa = test: Broth microdilution MIC of individual antifungals; conditions: Sclerotinia homoeocarpa, individual antifungal, 25% PDB, about 25° C., 72 hours, range over N independent triplicate studies; for MIC: Clarireedia homoeocarpa, read-out: Independent MIC
# Aspergillus niger = test: Broth microdilution MIC of individual antifungals; conditions: read-out: Independent MIC
# Botrytis cinerea 10-1728 = test: Broth microdilution MIC of individual antifungals; conditions: Botrytis cinerea 10-1728, individual antifungal, 25% PDB, about 25° C., 72 hours, range over N independent triplicate studies; for MIC: 101728, read-out: Independent MIC
# Phytophthora pini = test: Broth microdilution MIC of individual antifungals; conditions: individual antifungal, 25% PDB, about 25° C., 72 hours, range over N independent triplicate studies
# Mucor sp. = test: Broth microdilution MIC of individual antifungals; conditions: individual antifungal, 25% PDB, about 25° C., 72 hours, range over N independent triplicate studies
# Magnaporthe grisea = test: microbe, parasite or virus in culture; conditions: Pyricularia oryzae, 72 h, read-out: Independent MIC
# Aspergillus fumigatus = test: Broth microdilution MIC of individual antifungals; conditions: individual antifungal, 25% PDB, about 25° C., 72 hours, range over N independent triplicate studies, read-out: Independent MIC
# Fusarium verticillioides = test: Broth microdilution MIC of individual antifungals; conditions: individual antifungal, 25% PDB, about 25° C., 72 hours, range over N independent triplicate studies, read-out: Independent MIC
# Aspergillus flavus = test: Broth microdilution MIC of individual antifungals; conditions: individual antifungal, 25% PDB, about 25° C., 72 hours, range over N independent triplicate studies, read-out: Independent MIC
# [1] = test system: Mycosphaerella zeae-maydis; test: Broth microdilution MIC of individual antifungals; conditions: Didymella maydis, individual antifungal, 25% PDB, about 25° C., 72 hours, range over N independent triplicate studies
# Penicillium chrysogenum = test: Broth microdilution MIC of individual antifungals; conditions: read-out: Independent MIC
# Alternaria solani = test: Broth microdilution MIC of individual antifungals; conditions: individual antifungal, 25% PDB, about 25° C., 72 hours, range over N independent triplicate studies; for MIC: read-out: Independent MIC
# Candida albicans = test: Broth microdilution MIC of individual antifungals; conditions: individual antifungal, 25% PDB, about 25° C., 72 hours, range over N independent triplicate studies, read-out: Independent MIC
# [2] = test system: Colletotrichum orbiculare; test: Broth microdilution MIC of individual antifungals; conditions: read-out: Independent MIC
# Rhizopus sp. = test: Broth microdilution MIC of individual antifungals; conditions: Rhizopus, 72 h, read-out: Independent MIC
# Rhizoctonia solani = test: Broth microdilution MIC of individual antifungals; conditions: individual antifungal, 25% PDB, about 25° C., 72 hours, range over N independent triplicate studies, read-out: Independent MIC
# Stachybotrys chartarum = test: Broth microdilution MIC of individual antifungals; conditions: 72 h, read-out: Independent MIC
# Aureobasidium pullulans = test: Broth microdilution MIC of individual antifungals; conditions: 72 h, read-out: Independent MIC
# Botrytis cinerea B17 = test: Broth microdilution MIC of individual antifungals; conditions: Botrytis cinerea, B17, 72 h, read-out: Independent MIC
# [3] = individual antifungal, 25% PDB, about 25° C., 72 hours, range over N independent triplicate studies
# [4] = Rhizopus sp., individual antifungal, 25% PDB, about 25° C., 72 hours, range over N independent triplicate studies
structure (smiles),measurement,setting,value
"OB1OCc2ccccc21 [BO, 2-(hydroxymethyl)benzene boronic acid hemiester]",MIC,Fusarium graminearum,2 to 4 µg/mL
"O=C(Nc1ccccc1-c1ccc(Cl)cc1)c1cccnc1Cl [Boscalid, boscalid]",MIC,Sclerotinia homoeocarpa,0.8 µg/mL
same,MIC,Aspergillus niger; [3],0.39 to 0.5 µg/mL
same,MIC,Botrytis cinerea 10-1728,3.12 to 6.25 µg/mL
CCCCc1c(C)nc(NCC)nc1OS(=O)(=O)N(C)C [Bupirimate],MIC,Sclerotinia homoeocarpa,50 to 100 µg/mL
same,MIC,Phytophthora pini,50 µg/mL
same,MIC,Mucor sp.,100 µg/mL
same,MIC,Botrytis cinerea 10-1728,100 µg/mL
same,MIC,Magnaporthe grisea,50 µg/mL
"COC(=O)Nc1nc2ccccc2[nH]1 [Carbendazim, carbendazim]",MIC,Aspergillus fumigatus,1.56 to 3.12 µg/mL
same,MIC,Sclerotinia homoeocarpa,0.05 to 0.1 µg/mL
same,MIC,Fusarium verticillioides,3.12 to 4 µg/mL
same,MIC,Aspergillus flavus,0.78 to 3.12 µg/mL
same,MIC,[1],1.56 to 2 µg/mL
same,MIC,Aspergillus niger; 72 h,1 to 1.56 µg/mL
same,MIC,Fusarium graminearum,1.56 µg/mL
same,MIC,Magnaporthe grisea,0.39 to 0.78 µg/mL
"Cc1cc(C2CC2)nc(Nc2ccccc2)n1 [Cyprodinil, cyprodinil]",MIC,Penicillium chrysogenum; [3],0.025 to 0.048 µg/mL
same,MIC,Sclerotinia homoeocarpa,0.39 µg/mL
same,MIC,Alternaria solani,100 µg/mL
same,MIC,Fusarium verticillioides,100 to 200 µg/mL
same,MIC,Candida albicans,50 µg/mL
same,MIC,Aspergillus flavus,0.75 to 1.56 µg/mL
same,MIC,[1],1.56 µg/mL
same,MIC,Aspergillus niger; [3],3.12 µg/mL
same,MIC,Mucor sp.,50 µg/mL
same,MIC,Fusarium graminearum,200 µg/mL
same,MIC,Botrytis cinerea 10-1728,50 to 100 µg/mL
same,MIC,[2]; [3],100 to 200 µg/mL
"CCOc1ccc(NC(=O)OC(C)C)cc1OCC [Diethofencarb, diethofencarb]",MIC,Sclerotinia homoeocarpa,100 to 200 µg/mL
same,MIC,Mucor sp.,100 to 200 µg/mL
same,MIC,Botrytis cinerea 10-1728,1.5 to 1.56 µg/mL
"COc1ccc(C(=CC(=O)N2CCOCC2)c2ccc(Cl)cc2)cc1OC [Dimethomorph, dimethomorph]",MIC,Mucor sp.,200 to 400 µg/mL
same,MIC,Botrytis cinerea 10-1728,100 to 200 µg/mL
"CCCCc1c(C)nc(NCC)[nH]c1=O [Ethirimol, ethirimol]",MIC,Sclerotinia homoeocarpa,200 µg/mL
same,MIC,Phytophthora pini,200 µg/mL
same,MIC,[1],400 µg/mL
same,MIC,Botrytis cinerea 10-1728,200 to 400 µg/mL
"CSC1=N[C@@](C)(c2ccccc2)C(=O)N1Nc1ccccc1 [Fenamidone, fenamidone]",MIC,Sclerotinia homoeocarpa,100 to 200 µg/mL
same,MIC,Alternaria solani,100 to 200 µg/mL
same,MIC,[1],50 to 200 µg/mL
same,MIC,Mucor sp.,50 to 200 µg/mL
same,MIC,Botrytis cinerea 10-1728,100 µg/mL
"CC(Oc1ccc(Cl)cc1Cl)C(=O)NC(C)(C#N)C(C)C (stereo not shown) [Fenoxanil, fenoxanil]",Independent MIC,Sclerotinia homoeocarpa,200 µg/mL
same,Independent MIC,Alternaria solani,200 µg/mL
same,Independent MIC,Mucor sp.,(50-100) μg/mL
same,Independent MIC,Botrytis cinerea 10-1728,(100-200) μg/mL
"O=[N+]([O-])c1cc(C(F)(F)F)c(Cl)c([N+](=O)[O-])c1Nc1ncc(C(F)(F)F)cc1Cl [Fluazinam, fluazinam]",MIC,Sclerotinia homoeocarpa,3.12 to 6.25 µg/mL
same,MIC,Alternaria solani,0.5 to 0.78 µg/mL
same,MIC,Fusarium verticillioides,12.5 µg/mL
same,MIC,Rhizopus sp.; [4],0.2 to 0.78 µg/mL
same,MIC,Phytophthora pini,3.12 µg/mL
same,MIC,[1],1 to 1.56 µg/mL
same,MIC,Aspergillus niger; [3],3.12 µg/mL
same,MIC,Mucor sp.,0.78 to 1 µg/mL
same,MIC,Botrytis cinerea 10-1728,1 to 1.56 µg/mL
same,MIC,Rhizoctonia solani,6.25 to 25 µg/mL
"N#Cc1c[nH]cc1-c1cccc2c1OC(F)(F)O2 [Fludioxonil, fludioxonil]",MIC,Penicillium chrysogenum; 72 h,0.012 to 0.048 µg/mL
same,MIC,Stachybotrys chartarum,2 µg/mL
same,MIC,Aspergillus fumigatus,0.25 to 1 µg/mL
same,MIC,Sclerotinia homoeocarpa,0.125 to 0.25 µg/mL
same,MIC,Rhizopus sp.,50 to 80 µg/mL
same,MIC,Aureobasidium pullulans,3 to 3.12 µg/mL
same,MIC,Phytophthora pini,200 µg/mL
same,MIC,[1],2 µg/mL
same,MIC,Botrytis cinerea B17,0.5 µg/mL
same,MIC,Fusarium graminearum,50 µg/mL
same,MIC,Botrytis cinerea 10-1728,0.5 to 0.78 µg/mL
same,MIC,[2]; 72 h,0.195 to 0.39 µg/mL
same,MIC,Magnaporthe grisea,0.16 to 0.31 µg/mL
"O=C(NCCc1ncc(C(F)(F)F)cc1Cl)c1ccccc1C(F)(F)F [Fluopyram, fluopyram]",MIC,Penicillium chrysogenum; [3],0.1 to 0.4 µg/mL
same,MIC,Aspergillus fumigatus,3.12 to 6.25 µg/mL
same,MIC,Sclerotinia homoeocarpa,0.78 to 3.12 µg/mL
same,MIC,Rhizopus sp.; [4],200 µg/mL
same,MIC,Aspergillus flavus,200 µg/mL
same,MIC,Aspergillus niger; [3],0.78 to 1.56 µg/mL
same,MIC,Mucor sp.,200 µg/mL
same,MIC,Botrytis cinerea 10-1728,1.56 to 4 µg/mL
"CC(C)Oc1cccc(NC(=O)c2ccccc2C(F)(F)F)c1 [Flutolanil, flutolanil]",MIC,Botrytis cinerea 10-1728,400 µg/mL
